From BigSolDB 2.1

Conditions: in acetic acid

CO[C@H]1/C=C/O[C@@]2(C)Oc3c(C)c(O)c4c(O)c(c(/C=N/N5CCN(C6CCCC6)CC5)c(O)c4c3C2=O)NC(=O)/C(C)=C\C=C\[C@H](C)[C@H](O)[C@@H](C)[C@@H](O)[C@@H](C)[C@H](OC(C)=O)[C@@H]1C
Conditions	solubility (mole fraction)
278.15 K	0.0523
283.15 K	0.0558
288.15 K	0.0595
293.15 K	0.0632
297.15 K	0.067
303.15 K	0.0707
308.15 K	0.0755
313.15 K	0.0805
318.15 K	0.0858
323.15 K	0.0913
